In ChEMBL document CHEMBL1146366, “Synthesis and antigenotoxic activity of some naphtho[2,1-b]pyrano[3,2-e][1,2,4]triazolo[1,5-c]pyrimidine derivatives” (Eur J Med Chem, 2007):

Key:
[1] = tested on: Escherichia coli; assay: Genotoxicity in Escherichia coli PQ37 assessed as ratio of beta-galactosidase/AP activity in presence and absence of drug at 10 ug; type: toxicity, organism-based
[2] = tested on: Escherichia coli; assay: Inhibition of nifuroxazide-induced genotoxicity in Escherichia coli PQ37 at 2 ug by SOS chromotest; type: functional
[3] = tested on: Escherichia coli; assay: Inhibition of nifuroxazide-induced genotoxicity in Escherichia coli PQ37 at 10 ug by SOS chromotest; type: functional
[4] = tested on: Escherichia coli; assay: Inhibition of nifuroxazide-induced genotoxicity in Escherichia coli PQ37 at 50 ug by SOS chromotest; type: functional
[5] = tested on: Escherichia coli; assay: Genotoxicity in Escherichia coli PQ37 assessed as ratio of beta-galactosidase/AP activity in presence and absence of drug at 50 ug; type: toxicity, organism-based
[6] = tested on: Escherichia coli; assay: Genotoxicity in Escherichia coli PQ37 assessed as ratio of beta-galactosidase/AP activity in presence and absence of drug at 2 ug; type: toxicity, organism-based
[7] = tested on: Escherichia coli; assay: Genotoxicity in Escherichia coli PQ37 assessed as ratio of beta-galactosidase/AP activity in presence and absence of drug at 5 ug; type: toxicity, organism-based

Row | Compound | Ratio [1] | Inhibition [2] | Inhibition [3] | Inhibition [4] | Ratio [5] | Ratio [6] | Ratio [7]
1 | c1ccc(-c2nc3c4c(ncn3n2)Oc2ccc3ccccc3c2C4c2ccco2)cc1 (stereo not drawn) | 1.4 | 99% | 99% | 75% | 1.3 | 1.3 | –
2 | Cc1nc2c3c(ncn2n1)Oc1ccc2ccccc2c1C3C(C)C (stereo not drawn) | 1.1 | 99% | 98% | 95% | 1.39 | 1.01 | –
3 | O=C(N/N=C/c1ccc([N+](=O)[O-])o1)c1ccc(O)cc1 [NIFUROXAZIDE] | – | – | – | – | – | – | 12.88
4 | Cc1nc2c3c(ncn2n1)Oc1ccc2ccccc2c1C3c1ccccc1 (stereo not drawn) | 1.32 | 70% | 61% | 56% | 1.56 | 1.12 | –
5 | c1ccc(-c2nc3c4c(ncn3n2)Oc2ccc3ccccc3c2C4c2ccccc2)cc1 (stereo not drawn) | 1.24 | 78% | 86% | 99% | 1.4 | 1.02 | –
6 | CC(C)C1c2c(ccc3ccccc23)Oc2ncn3nc(-c4ccccc4)nc3c21 (stereo not drawn) | 1.19 | 62% | 61% | 63% | 1.25 | 1.11 | –
7 | Clc1ccc(C2c3c(ccc4ccccc34)Oc3ncn4nc(-c5ccccc5)nc4c32)cc1 (stereo not drawn) | 1.33 | 32% | 38% | 48% | 1.67 | 1.44 | –
8 | Clc1ccccc1C1c2c(ccc3ccccc23)Oc2ncn3nc(-c4ccccc4)nc3c21 (stereo not drawn) | 1.21 | 64% | 60% | 48% | 1.62 | 1.16 | –
